Results taken from patent US7947736B2, “Oligomeric compounds” (BTG International Limited, priority 2004, dated 2011).

Columns and labels:
[1] = Dissolution in deionized water / water solubility; assay type: physicochemical; conditions: dissolved at 300 mg/ml in deionized water (KTX 0202: 300 mg/kg [sic])
[2] = Ketogenic activity after intravenous injection: plasma β-hydroxybutyrate in rats (Ranbut assay); assay type: in vivo, rat; conditions: 300 mg/kg iv; for plasma concentration of β-hydroxybutyrate (increase to): 15 min after injection
Description: Male Sprague-Dawley rats (weight range 200-250 g) were obtained from Charles River, Margate, Kent.
The compounds were infused via the tail vein at 300 mg/kg (1 ml/kg) over a period of 1 to 2 min.
Animals were killed 15 min later by CO2 asphyxiation and blood was collected by cardiac puncture.

[3] = Ketogenic activity after oral administration: plasma β-hydroxybutyrate in rats (Ranbut assay); conditions: 300 mg/kg po; for maximum increase of plasma concentration of β-hydroxybutyrate: male Sprague-Dawley rats, versus baseline (T=0)
Description: Male Sprague-Dawley rats (weight range 200-250 g; Clarles River, Margate, Kent) were used. The rats were group-housed in polypropylene cages at a temperature of 21±4° C., 55±20% humidity on a standard 12 hour light/dark cycle (lights on at 6.00 am). […] Animals were acclimatized to these conditions for at least one week before experimentation.
The sodium salt of D-β-hydroxybutyrate monomer (KTX 0101) was used as a comparator for assessing the bioavailability of the oligomeric compounds described here. […] Control animals received the appropriate vehicle (deionized water at 1 ml/kg) via the same route.
In Protocol A, blood (approx […]) was collected by cardiac puncture at 15, 30 and 60 minutes after dosing. In Protocol B, blood (approx 5 ml) was collected by cardiac puncture at 30, 120 and 240 minutes after dosing. In Protocol E, blood (approx 5 ml) was collected by cardiac puncture at 120 and 240 minutes after dosing. Animals were killed by CO2 asphyxiation and blood collected by cardiac puncture. Blood was placed into EDTA-coated plasma collection tubes (Sarstedt 5 ml K2E tubes) and kept on ice prior to centrifugation. Tubes were centrifuged in an Eppendorf 570R centrifuge at 4° C. for 5 minutes at 2500 rpm (1000 g). Plasma samples were initially frozen on dry ice and transferred to a −75° C. freezer until required for analysis.
Commercial clinical assay kits (Ranbut) for the determination of D-β-hydroxybutyrate were obtained from Randox Laboratories (Antrim, UK). The kit quantified NADH via the activity of β-hydroxybutyrate dehydrogenase measured as an increase in OD340 nm. An alkaline pH is necessary to drive the reaction equilibrium towards the production of NADH and acetoacetate.
This spectrophotometric assay was modified for application to a 96-well microplate format. The reaction rate was then determined from the increase in OD340 nm over a 1 minute time-course, after allowing a necessary period for the reaction rate to settle.

Row | Compound | appearance of the solution [1] | pH of the solution [1] | plasma concentration of β-hydroxybutyrate (increase to) [2] [mM] | maximum increase of plasma concentration of β-hydroxybutyrate [3] [mM] | time at which plasma β-hydroxybutyrate was still significantly elevated ([3]; rats) [h] | time at which the maximum increase of plasma β-hydroxybutyrate was observed ([3]; rats) [min] | time by which plasma β-hydroxybutyrate returned to control values ([3]; rats) [h] | time until which plasma β-hydroxybutyrate plateaued at the maximum level ([3]; rats) [min] | magnitude of increase in plasma β-hydroxybutyrate compared with KTX 0101 ([3]; rats) | bioavailability by the intravenous route [2] | increase of plasma β-hydroxybutyrate at 15 min, more than KTX 0101 ([2]; 15 min) [%] | biological half-life relative to KTX 0101 ([3]; rats) | oral bioavailability ([3]; rats)
1 | C[C@@H](O)CC(=O)[O-].[Na+] [KTX 0101, sodium D-β-hydroxybutyrate, reference compound] | clear solution | 7.0 | 1.0 | 0.4 | 1 | 15 | ≤ 2 | 30 | – | – | – | – | –
2 | 1-3 butandiol, di-(tri(R)-3-hydroxybutyrate)ester [KTX 0203] | – | – | – | 0.4 | – | – | – | – | at least as great as those produced by KTX 0101 | – | – | – | –
3 | C[C@@H]1CC(=O)O[C@H](C)CC(=O)O[C@H](C)CC(=O)O1 [(R)-3-β-hydroxybutyrate triolide, reference compound] | – | – | – | 0.5 | – | – | – | – | at least as great as that evoked by oral administration of the equivalent dose of KTX 0101 | – | – | – | –
4 | CC(O)CCOC(=O)C[C@@H](C)OC(=O)C[C@@H](C)OC(=O)C[C@@H](C)O (stereo partly drawn) [KTX 0202, 1-(tri(R)-3-hydroxybutyryl-butane-1,3-diol) ester] | slightly opaque solution | 6.0 | 1.7 | 0.4 | 2 | 30 | ≤ 4 | – | at least as great as those produced by KTX 0101 | bioavailable when injected via the intravenous route | 60 | improved biological half-life relative to KTX 0101 | orally bioavailable
